# Source: article PMC10487961, “Antiplatelet Effects of Selected Xanthine-Based Adenosine A2A and A2B Receptor Antagonists Determined in Rat Blood” (International Journal of Molecular Sciences, 2023)
# Where two headings read alike, the source gives them in different places.
# Experiments:
# [1] = target: T1, human recombinant PDE2A (Homo sapiens, UniProt O00408); assay: PDE-Glo activity inhibition test, PDE2A; assay type: biochemical; details: cGMP substrate, read-out: IC50 (CV%) PDE2A
# T1 construct: purchased SignalChem
# T1 sequence (O00408 whole entry): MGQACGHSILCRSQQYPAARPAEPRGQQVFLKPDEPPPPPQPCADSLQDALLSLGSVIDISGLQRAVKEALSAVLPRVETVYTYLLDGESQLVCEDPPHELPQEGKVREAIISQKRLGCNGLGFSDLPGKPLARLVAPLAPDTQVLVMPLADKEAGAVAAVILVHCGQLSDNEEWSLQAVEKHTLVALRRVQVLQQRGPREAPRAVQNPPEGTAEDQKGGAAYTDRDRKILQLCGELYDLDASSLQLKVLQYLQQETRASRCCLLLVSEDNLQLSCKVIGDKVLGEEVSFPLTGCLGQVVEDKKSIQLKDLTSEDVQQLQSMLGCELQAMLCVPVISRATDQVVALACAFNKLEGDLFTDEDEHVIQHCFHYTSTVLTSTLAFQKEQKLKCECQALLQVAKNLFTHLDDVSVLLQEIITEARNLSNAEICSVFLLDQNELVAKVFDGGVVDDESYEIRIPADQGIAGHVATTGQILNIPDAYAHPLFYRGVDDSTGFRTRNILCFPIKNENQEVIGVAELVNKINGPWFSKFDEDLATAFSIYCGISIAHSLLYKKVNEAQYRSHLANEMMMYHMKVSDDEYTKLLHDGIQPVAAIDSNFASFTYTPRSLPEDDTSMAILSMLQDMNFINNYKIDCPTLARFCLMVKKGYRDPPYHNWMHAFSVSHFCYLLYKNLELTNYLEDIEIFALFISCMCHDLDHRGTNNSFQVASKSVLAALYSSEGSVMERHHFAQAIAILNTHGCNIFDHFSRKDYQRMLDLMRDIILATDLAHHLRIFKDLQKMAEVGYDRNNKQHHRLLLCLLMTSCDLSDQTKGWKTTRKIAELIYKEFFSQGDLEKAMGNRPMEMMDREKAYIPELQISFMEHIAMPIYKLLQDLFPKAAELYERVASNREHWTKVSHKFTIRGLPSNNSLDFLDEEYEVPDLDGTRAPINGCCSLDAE
# [2] = tested on: lipid peroxidation in rat brain homogenate; assay: In vitro lipid peroxidation (MDA/TBARS test)
# Experimental: The lipid peroxidation was measured by the formation of thiobarbituric acid reactive substances (TBARS) in rat brain homogenate, which was made in 0.9% NaCl containing 10 mg tissue per mL [60]. Briefly, rat brain homogenates (1 mL) were incubated at 37 °C for 5 min with 10 µL of a test compound or vehicle. Lipid peroxidation was initiated with the addition of 50 µL of 0.5 mmol/L FeCl2 and 50 µL of 2 mmol/L ascorbic acid. After 30 min of incubation, the reaction was stopped by adding 0.1 mL of 0.2% butylhydroxytoluene. Thiobarbituric acid reagent was then added, and the mixture was heated for 15 min in a boiling water bath. The TBARS was extracted using n-butanol and measured at 532 nm. The amount of TBARS was quantified using a standard curve of malondialdehyde (1,1,3,3-tetraethoxypropane was used as standard).
# The compound used to compare the results was carvedilol. Its activity was tested in the concentration range of 10–3000 μM (Figure 8). The reference was the maximum activity of carvedilol at the highest concentration (100%). Test compounds were assayed at concentrations of 100 and 1000 µM. The obtained results were then compared to the activity of the reference compound at identical concentrations (1000 µM).
# [3] = target: T2, human recombinant PDE3A (Homo sapiens, UniProt Q14432); assay: PDE-Glo activity inhibition test, PDE3A; assay type: biochemical; details: for IC50: human recombinant PDE3A, cAMP substrate, read-out: IC50 (CV%) PDE3A
# T2 construct: purchased SignalChem
# T2 sequence (Q14432 whole entry): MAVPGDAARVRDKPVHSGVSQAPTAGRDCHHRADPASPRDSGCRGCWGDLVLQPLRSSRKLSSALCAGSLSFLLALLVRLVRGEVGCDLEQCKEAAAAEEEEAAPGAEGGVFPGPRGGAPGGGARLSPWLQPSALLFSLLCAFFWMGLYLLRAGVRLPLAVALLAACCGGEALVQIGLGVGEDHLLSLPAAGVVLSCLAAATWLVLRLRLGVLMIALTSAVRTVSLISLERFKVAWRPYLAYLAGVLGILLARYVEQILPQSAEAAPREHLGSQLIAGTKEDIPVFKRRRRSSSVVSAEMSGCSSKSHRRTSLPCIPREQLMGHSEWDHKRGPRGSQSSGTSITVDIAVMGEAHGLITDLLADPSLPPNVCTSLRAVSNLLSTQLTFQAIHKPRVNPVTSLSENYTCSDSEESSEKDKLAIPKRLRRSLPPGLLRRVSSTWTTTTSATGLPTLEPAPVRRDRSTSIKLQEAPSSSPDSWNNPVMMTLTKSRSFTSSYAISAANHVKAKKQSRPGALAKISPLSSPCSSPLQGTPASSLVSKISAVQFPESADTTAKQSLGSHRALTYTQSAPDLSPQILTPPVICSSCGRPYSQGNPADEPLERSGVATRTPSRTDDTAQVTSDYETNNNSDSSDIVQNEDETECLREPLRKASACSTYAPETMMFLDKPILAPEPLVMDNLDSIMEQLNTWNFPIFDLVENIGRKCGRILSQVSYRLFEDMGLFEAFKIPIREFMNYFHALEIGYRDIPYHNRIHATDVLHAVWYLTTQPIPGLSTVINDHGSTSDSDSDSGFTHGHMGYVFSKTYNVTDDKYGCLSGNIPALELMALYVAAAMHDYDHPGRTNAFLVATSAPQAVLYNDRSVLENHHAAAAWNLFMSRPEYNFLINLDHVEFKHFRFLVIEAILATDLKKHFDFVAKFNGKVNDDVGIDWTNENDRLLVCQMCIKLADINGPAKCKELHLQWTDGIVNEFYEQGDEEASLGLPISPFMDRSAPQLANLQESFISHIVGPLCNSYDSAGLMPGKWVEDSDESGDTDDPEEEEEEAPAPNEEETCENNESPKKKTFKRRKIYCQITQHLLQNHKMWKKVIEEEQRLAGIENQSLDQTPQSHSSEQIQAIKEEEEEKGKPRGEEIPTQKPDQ
# [4] = target: T3, human recombinant PDE5A (Homo sapiens, UniProt O76074); assay: PDE-Glo activity inhibition test, PDE5A; assay type: biochemical; details: cGMP substrate, read-out: IC50 (CV%) PDE5A
# T3 construct: purchased SignalChem
# [5] = tested on: platelet aggregation in whole rat blood induced with collagen; assay: In vitro whole rat blood aggregation induced with collagen (Multiplate impedance aggregometry); assay type: cell-based; details: for Effect on collagen-induced platelet aggregation (in words): screened at 10 µM and 100 µM, whole rat blood (Figure 1); for Effect on collagen-induced platelet aggregation (in words) / Reduction of collagen-induced platelet aggregation: collagen 1.6 µg/mL; for IC50: Collagen [1.6 µg/mL], concentration inhibiting aggregation of whole rat blood in vitro by 50%; for Reduction of collagen-induced platelet aggregation: 100 µM compound, whole rat blood, screening (Figure 1)
# Experimental: (§1) To evaluate antiplatelet activities of the test compounds, freshly isolated rat whole blood was incubated with compound or vehicle, and the aggregation responses were assessed with a whole blood aggregometer by measuring impedance changes. Platelet aggregation was induced with collagen. First, compounds were screened for anti-aggregation effects at concentration of 10 µM and 100 µM (Figure 1). […] In vitro aggregation tests were conducted using freshly collected whole rat blood with a Multiplate platelet function analyzer (Roche Diagnostic, Mannheim, Germany), the five-channel aggregometer based on measurements of electric impedance, according to previous procedures. Upon activation, platelets adhere and progressively aggregate on a duplicate metal sensor in the analyzer test cuvette. This leads to a change in resistance, which is proportional to the number of platelets adhering to the electrodes. Blood was drawn from the carotid of rats with hirudin blood tubes (S-Monovette, Hirudin, Sarstedt, Germany). Then, 300 μL of hirudin anticoagulated blood was mixed with 300 μL prewarmed isotonic saline solution containing the studied compound or vehicle (DMSO 0.1%) and preincubated for 3 min at 37 °C with continuous stirring. The agonists (collagen, ADP) were diluted using deionized water. Aggregation was induced by adding collagen (final concentration 1.6 µg/mL) or ADP (final concentration 6.5 µM). […] Activated platelet function was recorded for 6 min. Multiplate software v. V2.05 was used to analyze the area under the curve (AUC) of the clotting process for each measurement and calculate the mean values.
# [6] = target: hA2AR; details: cited from earlier work
# [7] = target: hA3R; details: human A3 receptor; read-out: Ki ± SEM hA3R vs. [3H]PSB-11; cited from earlier work
# [8] = target: hA2BR; details: human A2B receptor; read-out: Ki ± SEM hA2BR vs. [3H]PSB-603; cited from earlier work
# [9] = target: hA1R; details: human A1 receptor; read-out: Ki ± SEM hA1R vs. [3H]CCPA; cited from earlier work
# [10] = target: T1, human recombinant PDE2A; design: method as in PMID 31705904; details: cited from earlier work
# [11] = target: T3, human recombinant PDE5A; design: method as in PMID 31705904; details: cited from earlier work
# [12] = tested on: platelet aggregation in whole rat blood induced by ADP; assay: In vitro whole rat blood aggregation induced with ADP (Multiplate impedance aggregometry); assay type: cell-based; details: ADP [6.5 μM], concentration inhibiting aggregation of whole rat blood in vitro by 50%
# Experimental: as §1, with “In further experiments,” for “To evaluate antiplatelet activities of the test compounds, freshly isolated rat whole blood was incubated with compound or vehicle, and the aggregation responses were assessed with a whole blood aggregometer by measuring impedance changes. Platelet”, “ADP. In this model of aggregation, we tested the selected” for “collagen. First,”, “as well as IBMX as a positive control.” for “were screened for anti-aggregation effects at concentration of 10 µM and 100 µM (Figure 1).”
Compound,IC50 [1] [µM],IC50 [3] [nM],IC50 [4] [µM],Effect on collagen-induced platelet aggregation (in words) [5],Ki [6] [nM],Ki [7] [nM],Ki [8] [nM],Ki [9] [nM],IC50 [12] [µM],other results
"3,7-dimethyl-8-(3-phenylpropoxy)-1-(prop-2-yn-1-yl)--purine-2,6-dione [TB-46]",9.85,580,68.6,did not affect platelet aggregation,19.1 ± 2.3,> 1000,472 ± 174,158 ± 12,–,Antioxidant activity at a concentration 10 times lower (in words) ([2]; concentration 10 times lower than 1000 µM): practically disappeared
"CCCCCC[C@@H]([C@@H](C)O)n1cnc2c(N)ncnc21 (racemic) [EHNA, erythro-9-(2-hydroxy-3-nonyl)adenine, reference compound]",8.22,–,–,–,–,–,–,–,–,–
"COc1ccccc1OCCNCC(O)COc1cccc2[nH]c3ccccc3c12 (stereo not shown) [Carvedilol, carvedilol, reference compound]",–,–,–,–,–,–,–,–,–,"EC50 ([2]; carvedilol tested at 10–3000 μM, Figure 8, read-out: EC50 antioxidant action (lipid peroxidation)): 68.8 µM"
"O=C1CCc2cc(OCCCCc3nnnn3C3CCCCC3)ccc2N1 [Cilostazol, cilostazol, reference compound]",–,54.5,–,–,–,–,–,–,–,–
"CC(C)Cn1c(=O)n(C)c(=O)c2[nH]cnc21 [IBMX, 1-methyl-3-isobutylxanthine, reference compound]",–,–,–,–,–,–,–,–,18.5 ± 7.3,"IC50 [10]: 9.22 µM; IC50 [11]: 45.1 µM; IC50 [5]: 98.8 ± 29.8 µM; IC50 ([5]; Rattus norvegicus, Platelet): ~100 µM"
"CC1CCC(N2CCCn3c2nc2c3c(=O)n(C)c(=O)n2C)CC1 (stereo not shown) [KD-64, 1,3-dimethyl-9-(4-methylcyclohexyl)-pyrimido [2,1-f] purine-2,4-dione]",27,10300,> 100,did not affect platelet aggregation,240,> 1000,> 1000,> 1000,–,–
"CCn1c(=O)c2c(nc(NCc3c(Cl)ccc(OC)c3F)n2C)n(C)c1=O [MZ-1497, 8-((6-chloro-2-fluoro-3-methoxybenzyl)amino)-1-ethyl-3,7-dimethyl-purine-2,6-dione]",–,–,> 100,did not affect platelet aggregation,68.5 ± 15.5,> 1000,> 1000,> 1000,–,–
"CCCn1c(=O)[nH]c2nc(-c3ccc(S(=O)(=O)N4CCN(c5ccc(Cl)cc5)CC4)cc3)[nH]c2c1=O [PSB-603, 1-propyl-8-(4-((4-(4-chlorophenyl)piperazin-1-yl)sulfonyl)phenyl)-1H-purine-2,6(3H,7H)-dione]",50.1,> 100000,39.7,–,> 1000,> 1000,0.553 ± 0.103,> 1000,82.9 ± 17,"Effect against PDE3A activity (in words) ([3]; in the concentrations tested): did not display any detectable effects; Reduction of collagen-induced platelet aggregation [5]: 50.4%; Prevention of collagen-induced platelet aggregation ([5]; 100 µM, highest tested concentration, concentration series (Figure 2)): 54.12%; IC50 [5]: 98.6 ± 27 µM; IC50 ([5]; Rattus norvegicus, Platelet): ~100 µM; Effect on platelet activity at lower concentrations (in words) ([5]; concentrations below 100 µM, collagen 1.6 µg/mL (Figure 2)): did not markedly affect platelet activity"
"CCCCn1c(=O)[nH]c2nc(-c3ccc(S(=O)(=O)N4CCN(c5ccc(Cl)cc5)CC4)cc3)[nH]c2c1=O [PSB-23066, 1-butyl-8-(4-((4-(4-chlorophenyl)piperazin-1-yl)sulfonyl)phenyl)-1H-purine-2,6(3H,7H)-dione]",–,–,45.8,did not affect platelet aggregation,> 1000,> 1000,0.401 ± 0.136,> 1000,–,–
C#CCn1c(=O)c2c(nc(OCc3ccccc3Br)n2C)n(C)c1=O [TB-42],–,–,64.5,–,59 ± 10.2,–,> 1000,357 ± 49,58.6 ± 35.6,Reduction of collagen-induced platelet aggregation [5]: 56.8%; IC50 ([5]; Platelet): 69.3 ± 0.7 µM
